In US6875761B2 (Eisai Co., Ltd., priority 1997, dated 2005):
Counter-ions that a name gives are not always drawn.

Assays:
serotonin 1A receptor = target: T1, serotonin 1A receptor (Rattus norvegicus, UniProt P19327); assay: Binding test on [3H] 8-hydroxy-dipropylaminotetralin, hippocampus receptor fraction; parameters: species or system SD rats; settings: rat hippocampus receptor fraction, 0.5 nM [3H] 8-OH-DPAT, room temperature 30 min; read-out: 5HT1
T1 construct: To the receptor fraction of the hippocampus were added a test compound and 0.5 nM of [^3H]; 8-hydroxy-dipropylaminotetralin; from tissue; host or cells: rat hippocampus membrane fraction
T1 sequence (P19327 1-422): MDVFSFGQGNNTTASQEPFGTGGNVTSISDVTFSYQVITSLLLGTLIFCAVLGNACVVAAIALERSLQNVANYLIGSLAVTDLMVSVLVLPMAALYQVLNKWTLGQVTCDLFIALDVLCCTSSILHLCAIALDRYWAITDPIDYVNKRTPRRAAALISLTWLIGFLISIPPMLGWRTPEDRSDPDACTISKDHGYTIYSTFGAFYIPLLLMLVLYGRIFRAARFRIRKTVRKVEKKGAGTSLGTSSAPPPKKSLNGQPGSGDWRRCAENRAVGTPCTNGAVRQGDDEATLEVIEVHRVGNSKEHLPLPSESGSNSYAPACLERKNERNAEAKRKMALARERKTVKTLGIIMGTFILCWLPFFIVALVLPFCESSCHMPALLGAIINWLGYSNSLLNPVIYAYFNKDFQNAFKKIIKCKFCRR

serotonin 2 receptor = target: T2, serotonin 2 receptor (Rattus norvegicus, UniProt P14842); assay: Binding test on [3H] ketanserin, cerebral cortex receptor fraction; parameters: species or system SD rats; settings: 0.3 nM [3H] ketanserin, 37° C. 15 min, read-out: 5HT2
T2 construct: To the receptor fraction of the cerebral cortex were added a test compound and 0.3 nM of [^3H] ketanserin; from tissue; host or cells: rat cerebral cortex membrane fraction
T2 sequence (P14842 whole entry): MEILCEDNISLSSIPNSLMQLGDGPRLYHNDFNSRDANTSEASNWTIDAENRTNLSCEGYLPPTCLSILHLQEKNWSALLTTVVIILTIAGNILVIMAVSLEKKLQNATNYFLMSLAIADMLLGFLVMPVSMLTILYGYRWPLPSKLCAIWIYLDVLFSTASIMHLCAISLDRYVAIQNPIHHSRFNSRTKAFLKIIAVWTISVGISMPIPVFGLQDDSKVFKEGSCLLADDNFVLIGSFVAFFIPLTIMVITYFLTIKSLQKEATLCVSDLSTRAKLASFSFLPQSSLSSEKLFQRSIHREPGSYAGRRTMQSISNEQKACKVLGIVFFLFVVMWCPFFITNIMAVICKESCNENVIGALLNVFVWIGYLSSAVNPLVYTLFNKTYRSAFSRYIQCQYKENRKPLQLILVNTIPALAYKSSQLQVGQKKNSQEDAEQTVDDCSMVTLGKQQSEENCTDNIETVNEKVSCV

Compound | Ki (serotonin 1A receptor) | Ki (serotonin 2 receptor)
CCN1CCN(c2nc(-c3ccc(C4CCOCC4)cc3)cc3ccccc23)CC1 [Example 83, 3-[4-(Tetrahydropyran-4-yl)phenyl]-1-(4-ethylpiperazin-1-yl)isoquinoline Hydrochloride] | 75.6 nM | 4.3 nM
CCN1CCN(c2nc(-c3ccc(C4=CCOCC4)cc3)cc3ccccc23)CC1 [Example 84, 3-[4-(5,6-Dihydro-2H-pyran-4-yl)phenyl]-1-(4-ethylpiperazin-1-yl)isoquinoline Hydrochloride] | 72.1 nM | 0.9 nM
CCC(=O)NCc1ccc(-c2cc3ccccc3c(N3CCN(CC)CC3)n2)cc1 [Example 85, 3-(4-Ethylcarbonylaminomethylphenyl)-1-(4-ethylpiperazin-1-yl)isoquinoline Hydrochloride] | 18.7 nM | 9.7 nM
CCCC(=O)NCc1ccc(-c2cc3ccccc3c(N3CCN(CC)CC3)n2)cc1 [Example 86, 3-(4-Propylcarbonylaminomethylphenyl)-1-(4-ethylpiperazin-1-yl)isoquinoline Hydrochloride] | 11.7 nM | 5.3 nM
CCNC(=O)Cc1ccc(-c2cc3ccccc3c(N3CCN(CC)CC3)n2)cc1 [Example 87, 3-(4-Ethylaminocarbonylmethylphenyl)-1-(4-ethylpiperazin-1-yl)isoquinoline Hydrochloride] | 16.9 nM | 17 nM
CCCNC(=O)Cc1ccc(-c2cc3ccccc3c(N3CCN(CC)CC3)n2)cc1 [Example 88, 3-(4-Propylaminocarbonylmethylphenyl)-1-(4-ethylpiperazin-1-yl)isoquinoline Hydrochloride] | 9.4 nM | 11.7 nM
CCCCNC(=O)Cc1ccc(-c2cc3ccccc3c(N3CCN(CC)CC3)n2)cc1 [Example 89, 3-(4-Butylaminocarbonylmethylphenyl)-1-(4-ethylpiperazin-1-yl)isoquinoline Hydrochloride] | 6.3 nM | 10 nM
CCN1CCN(c2nc(-c3ccc(CS(C)(=O)=O)cc3)cc3ccccc23)CC1 [Example 90, 3-(4-Methylsulfonylmethylphenyl)-1-(4-ethylpiperazin-1-yl)isoquinoline Hydrochloride] | 4.5 nM | 12.9 nM
CCN1CCN(c2nc(-c3ccc(CNS(=O)(=O)CC)c(Cl)c3)cc3ccccc23)CC1 [Example 91, 3-(3-Chloro-4-ethylsulfonylaminomethylphenyl)-1-(4-ethylpiperazin-1-yl)isoquinoline Hydrochloride] | 1.1 nM | 1.6 nM
CCCS(=O)(=O)NCc1ccc(-c2cc3ccccc3c(N3CCN(CC)CC3)n2)cc1Cl [Example 92, 3-(3-Chloro-4-propylsulfonylaminomethylphenyl)-1-(4-ethylpiperazin-1-yl)isoquinoline Hydrochloride] | 0.9 nM | 0.7 nM
CCN1CCN(c2nc(-c3ccc(CN4CCOCC4)cc3)cc3ccccc23)CC1 [Example 93, 3-(4-Morpholinylmethylphenyl)-1-(4-ethylpiperazin-1-yl)isoquinoline Hydrochloride] | 10.8 nM | 56.7 nM
CCN1CCN(c2nc(-c3ccc(CN4CCSCC4)cc3)cc3ccccc23)CC1 [Example 94, 3-(4-Thiomorpholinylmethylphenyl)-1-(4-ethylpiperazin-1-yl)isoquinoline Hydrochloride] | 6.4 nM | 41.2 nM
CCN1CCN(c2nc(-c3ccc(N4CCOC4=O)cc3)cc3ccccc23)CC1 [Example 95, 3-[4-(3-Oxazolidinone)phenyl]-1-(4-ethylpiperazin-1-yl)isoquinoline Hydrochloride] | 7.8 nM | 21.2 nM
CCN1CCN(c2nc(-c3ccc(N4CCC5(CC4)OCCO5)cc3)cc3ccccc23)CC1 [Example 96, 3-[4-(4,4-Ethylenedioxypiperidin-1-yl)phenyl]-1-(4-ethylpiperazin-1-yl)isoquinoline] | 138 nM | 0.1 nM
CCN1CCN(c2nc(-c3ccc(N4CCC(O)CC4)cc3)cc3ccccc23)CC1 [Example 97, 1-(4-Ethylpiperazin-1-yl)-3-[4-(4-hydroxypiperidin-1-yl)phenyl]isoquinoline Trihydrochloride] | 34.7 nM | 13.3 nM
CCN1CCN(c2nc(-c3ccc(N4CCC(OC)CC4)cc3)cc3ccccc23)CC1 [Example 98, 1-(4-Ethylpiperazin-1-yl)-3-[4-(4-methoxypiperidin-1-yl)phenyl]isoquinoline Trihydrochloride] | 61.6 nM | 2.7 nM
CCN1CCN(c2nc(-c3ccc(N4CCN(C(C)=O)CC4)nc3)cc3ccccc23)CC1 [Example 99, 3-[2-(4-Acetylpiperazin-1-yl)pyridin-5-yl]-1-(4-ethylpiperazin-1-yl)isoquinoline Trihydrochloride] | 3.5 nM | 6.2 nM

Compound | Ki (serotonin 1A receptor) | Ki (serotonin 2 receptor)
CCN1CCN(c2nc(-c3ccc(N4CCN(C(C)=O)CC4)cc3)cc3ccccc23)CC1 [Example 100, 3-[4-(4-Acetylpiperazin-1-yl)phenyl]-1-(4-ethylpiperazin-1-yl)isoquinoline Trihydrochloride] | 12.7 nM | 5.6 nM
CCN1CCN(c2nc(C(C)c3ccc(OC)cc3)cc3ccccc23)CC1 (stereo not drawn) [Example 102, 3-[α-Methyl-(4-methoxybenzyl)]-1-(4-ethylpiperazin-1-yl)isoquinoline Oxalate] | 129 nM | 132 nM
CCN1CCN(c2nc(C(O)c3ccc(OC)cc3)cc3ccccc23)CC1 (stereo not drawn) [Example 104, 3-[α-Hydroxy-(4-methoxybenzyl)]-1-(4-ethylpiperazin-1-yl)isoquinoline Oxalate] | 109 nM | 101 nM
CCN1CCN(c2nc(CCc3ccc(OC)cc3)cc3ccccc23)CC1 [Example 106, 1-(1-Ethylpiperazin-4-yl)-3-(4-methoxyphenethyl)isoquinoline] | 70 nM | 30.6 nM
CCN1CCN(c2nc(CCc3cccc(OCCO)c3)cc3ccccc23)CC1 [Example 108, 1-(1-Ethylpiperazin-4-yl)-3-[3-(2-hydroxyethoxy)phenethyl]isoquinoline] | 157 nM | 33.8 nM
CCN1CCN(c2nc(CCCc3ccccc3OCCO)cc3ccccc23)CC1 [Example 110, 1-(1-Ethylpiperazin-4-yl)-3-[3-[2-(2-hydroxyethoxy)phenyl]propyl]isoquinoline] | 58.6 nM | 109 nM
CCN1CCN(c2nc(C(=O)c3ccccc3OC)cc3ccccc23)CC1 [Example 111, 3-(2-Methoxyphenylcarbonyl)-1-(4-ethylpiperazin-1-yl)isoquinoline Oxalate] | 10.3 nM | 89.9 nM
CCN1CCN(c2nc(C3CCc4ccc(OC)cc43)cc3ccccc23)CC1 (centres unmarked) [Example 114, 3-(6-Methoxyindan-1-yl)-1-(4-ethylpiperazin-1-yl)isoquinoline Oxalate] | 167 nM | 49.9 nM
CCN1CCN(c2nc(-c3ccc4c(c3)CC(CO)CO4)cc3ccccc23)CC1 (centres unmarked) [Example 122, 3-(3-Hydroxymethylchroman-6-yl)-1-(4-Ethylpiperazin-1-yl)Isoquinoline Hydrochloride] | 40.1 nM | 19.9 nM
CCN1CCN(c2nc(-c3ccc(OCCO)nc3)cc3ccccc23)CC1 [Example 125, 1-(1-Ethylpiperazin-4-yl)-3-[2-(2-Hydroxyethoxy)Pyridin-5-yl]Isoquinoline] | 27.1 nM | 6.9 nM
CCCC(=O)Nc1ccc(-c2cc3ccccc3c(N3CCN(CC)CC3)n2)cn1 [Example 128, 3-(2-propylcarbonylaminopyridin-5-yl)-1-(4-ethylpiperazin-1-yl)isoquinoline hydrochloride] | 22.2 nM | 3 nM
CCN1CCN(c2nc(-c3ccc(S(C)(=O)=O)nc3)cc3ccccc23)CC1 [Example 129, 3-[(2-Methylsulfonylpyridin)-5-yl]-1-(4-Ethylpiperazin-1-yl)Isoquinoline Hydrochloride] | 21.6 nM | 18.4 nM
CCN1CCN(c2nc(-c3ccc(S(=O)(=O)CC)nc3)cc3ccccc23)CC1 [Example 130, 3-[(2-Ethylsulfonylpyridin)-5-yl]-1-(4-Ethylpiperazin-1-yl)Isoquinoline Hydrochloride] | 24.4 nM | 17 nM
CCCCc1ccc(-c2cc3ccccc3c(N3CCN(CC)CC3)n2)cn1 [Example 131, 1-(1-Ethylpiperazin-4-yl)-3-(2-Butylpyridin-5-yl)Isoquinoline] | 6.4 nM | 5.8 nM
CCN1CCN(c2nc(-c3ccc(CCCF)cn3)cc3ccccc23)CC1 [Example 132, 1-(1-Ethylpiperazin-4-yl)-3-[5-(3-Fluoropropyl)Pyridin-2-yl)Isoquinoline] | 1.5 nM | 23.4 nM
CCN1CCN(c2nc(-c3ccc(CCCF)nc3)cc3ccccc23)CC1 [Example 133, 1-(1-Ethylpiperazin-4-yl)-3-[2-(3-Fluoropropyl)Pyridin-5-yl]Isoquinoline] | 2.9 nM | 6.2 nM
CCN1CCN(c2nc(-c3ccc(CCCO)cn3)cc3ccccc23)CC1 [Example 134, 1-(1-Ethylpiperazin-4-yl)-3-[5-(3-Hydroxypropyl)Pyridin-2-yl]Isoquinoline] | 4.9 nM | 12.4 nM
